These results are taken from US12377079B2, “Antibacterial compounds and uses thereof” (The Children's Medical Center Corporation, priority 2018, dated 2025).

In one series the test system is Group A streptococcus. Put plainly: Minimum inhibitory concentration (MIC). To be noted: read-out: Minimum inhibitory concentration (MIC).
The test system of another series is K. pneumoniae Kp233. Description: Minimum inhibitory concentration (MIC). To be noted: Klebsiella pneumoniae, KP233, read-out: Minimum inhibitory concentration (MIC).
The next series has as its system P. aeruginosa PA01. Description: Minimum inhibitory concentration (MIC).
A short description of series [1]: Particulate matter in aqueous media (micrographs). It counts as physicochemical. The following applies: 100 μg/mL in culture medium. Here is the method:
(§1) Morphometric analysis. Carbapenem-susceptible Kp233 were treated as described for stationary phase viability assays, with the exception that negative control wells contained no DMSO and no antimicrobials. Ampicillin (150 μg/mL) was used as a positive control. Cells were incubated statically at 37° C. for 4 hr. Thirty μL from each well was transferred into a 24-well plate filled with 300 μL of LB broth. Images were captured with a 40× magnification lens using a Nikon Eclipse TE2000-E microscope. Morphometric analysis was carried out using IPLab 4.0 software.

The next series relates to Kp233/pJBA110. Put plainly: GFP fluorescence assay (protein synthesis). To be noted: low concentrations, 15 hr.
The subject of another series is MRSA. Description: Minimum inhibitory concentration (MIC). To be noted: Staphylococcus aureus, read-out: Minimum inhibitory concentration (MIC).
Series [2] relates to E. coli urine isolate EC236. Put plainly: Minimum inhibitory concentration (MIC). The following applies: Escherichia coli, read-out: Minimum inhibitory concentration (MIC).
For a further series, the system named is HeLa S3 cells. Description: Alamar Blue assay for cytotoxicity. The following applies: 20 hours. Format: cell-based, human. Here is the method:
Alamar Blue assay for cytotoxicity. HeLa S3 cells were cultured in Dulbecco's modified Eagle medium supplemented with 10% fetal bovine serum, 100 U/mL penicillin, and 100 μg/mL streptomycin. Each well of a 96-well microtiter plate (Nunclon Delta Surface, Thermo Scientific) was seeded with 10,000 cells in 100 μL of culture medium. Cells were incubated for 18 hr in a humidified incubator at 37° C. with 5% CO2 to allow attachment. Compounds were added to the adherent cells to yield a final concentration of 13 and 107 μg/mL. Positive control wells contained 0.1% Triton X-100, carrier control wells contained DMSO, and negative control wells contained medium and cells without DMSO. After addition of compounds, 0.1% Triton, or DMSO, plates were returned to the incubator. Cell viability was measured by resazurin reduction. Alamar Blue reagent (Invitrogen) was added to the cells after a 1.5 hr incubation with the test compounds. Cells were incubated for 20 hr, and then fluorescence was measured using the Infinite 200 (Tecan) with excitation and emission wavelengths of 550 nm and 590 nm, respectively. To calculate viability, the average fluorescence value of Triton-treated positive control wells was subtracted from that of untreated wells or wells containing test compounds. These values were then divided by the average fluorescence of untreated wells to give cell viability as a percentage of the negative control.
A general note: Resazurin is reduced to fluorescent resorufin, in cell work by metabolically active cells.

For series [3], the system named is S. aureus teichoic acid biosynthesis. The following applies: secondary screens, after a hit in the primary screen; cited from earlier work.
Series [4] deals with Human tyrosyl-DNA phosphodiesterase 1 (TDP1) (Homo sapiens, UniProt Q9NUW8). To be noted: PubChem BioAssay; cited from earlier work.
The test system of series [5] is E. coli urine isolate EC235. Description: Minimum inhibitory concentration (MIC). The following applies: Escherichia coli, read-out: Minimum inhibitory concentration (MIC).
The subject of series [6] is K. pneumoniae (Kp233). Put plainly: Compound impact on bacterial viability (exponential and stationary phase). Format: cell-based, Klebsiella pneumoniae. To be noted: 100 μg/mL compound + PAβN 40 μg/ml, 4 hr, exponential and stationary phase. Here is the method:
Compound impact on bacterial viability. […] One hundred μL of each compound preparation was dispensed into the wells of a microtiter plate. Negative (untreated) wells contained LB with or without PAβN only. Stationary phase cell viability. A glycerol stock of the carbapenem-susceptible clinical strain of K. pneumoniae (Kp233) was inoculated into 1.5 mL of LB and incubated overnight (approximately 18 hr) at 37° C. with shaking. […] Cells were incubated statically at 37° C. for 4 hr, and viable counts were determined by plating. Exponential phase cell viability. Overnight cultures of Kp233 were diluted 1:5,000 into 50 mL of LB broth and incubated at 37° C. with shaking at 200 rpm. […] These cells were also washed twice with NS and inoculated into the wells of a microtiter plate prepared as described above. Cells were incubated statically at 37° C. for 4 hr, and viable counts were determined by plating.

The next series has as its system Lassa virus entry. The following applies: PubChem BioAssay; cited from earlier work.
The subject of another series is resistant GNR. Description: MIC with and without efflux pump inhibitor PAβN, resistant GNR as a group.
The test system of series [7] is CR-K. pneumoniae (ATCC BAA-1705). Put plainly: Minimum inhibitory concentration (MIC).
The subject of series [8] is K. pneumoniae (Kp233). Put plainly: Morphometric analysis by phase contrast microscopy. Format: cell-based, Klebsiella pneumoniae. To be noted: stationary phase cells, 4 hr; compounds 100 μl/mI alone or with PAβN, ampicillin 150 μg/mL. Here is the method:
as §1

For the next series, the system named is A. baumanii. Description: Minimum inhibitory concentration (MIC).

“Also recorded” adds a separate entry of the source.

Sequence of Human tyrosyl-DNA phosphodiesterase 1 (TDP1) (Q9NUW8 whole entry): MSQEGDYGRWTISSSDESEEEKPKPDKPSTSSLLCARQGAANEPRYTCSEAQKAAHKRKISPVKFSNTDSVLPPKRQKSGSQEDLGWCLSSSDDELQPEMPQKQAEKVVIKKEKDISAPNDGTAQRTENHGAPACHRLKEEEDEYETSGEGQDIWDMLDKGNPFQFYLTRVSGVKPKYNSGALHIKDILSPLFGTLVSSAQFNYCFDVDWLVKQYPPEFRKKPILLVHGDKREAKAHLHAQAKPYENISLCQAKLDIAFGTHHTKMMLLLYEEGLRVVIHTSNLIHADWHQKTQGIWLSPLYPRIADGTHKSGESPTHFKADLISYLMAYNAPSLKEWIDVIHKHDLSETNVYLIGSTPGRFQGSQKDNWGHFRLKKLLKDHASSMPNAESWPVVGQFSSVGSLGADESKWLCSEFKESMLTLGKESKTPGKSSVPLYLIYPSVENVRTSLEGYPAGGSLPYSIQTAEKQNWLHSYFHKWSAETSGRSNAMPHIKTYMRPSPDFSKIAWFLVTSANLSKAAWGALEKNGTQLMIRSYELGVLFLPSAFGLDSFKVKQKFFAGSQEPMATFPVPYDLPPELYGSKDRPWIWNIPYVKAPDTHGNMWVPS

With `Cc1nn2c(=O)cc(-c3ccc(Cl)cc3)[nH]c2c1-c1ccccc1` [Compound N08], the MIC in the series with Group A streptococcus was above 96 µg/mL; with K. pneumoniae Kp233 it was above 96 µg/mL; in the series on P. aeruginosa PA01 (Pseudomonas aeruginosa, PA01, read-out: Minimum inhibitory concentration (MIC)), above 96 µg/mL; in the series with MRSA, below 0.75 µg/mL; in [2], above 96 µg/mL; in series [5], above 96 µg/mL. The MIC is above 96 µg/mL in series [7] (Klebsiella pneumoniae, ATCCBAA1705, read-out: Minimum inhibitory concentration (MIC)) and above 96 µg/mL with A. baumanii (Acinetobacter baumannii, read-out: Minimum inhibitory concentration (MIC)). In addition, the “Minimum inhibitory concentration (MIC)” value amounted to 12 µg/mL in the series on P. aeruginosa PA01 (P. aeruginosa PA01, PAβN + (40 μg/mL)); 6 µg/mL in [7] (CR-K. pneumoniae ATCC BAA-1705, PAβN + (40 μg/mL)); 1.5 µg/mL with A. baumanii (A. baumanii, PAβN + (40 μg/mL)). Further, the “Particulate matter in micrographs (insolubility in aqueous media)” value in series [1] is reported as “particulate matter was observed”. Also, the “Bacterial growth (OD) and GFP fluorescence” value with Kp233/pJBA110 is “interfered with GFP fluorescence but not growth”. In addition, the “Toxicity to HeLa S3 cells (viability by resazurin reduction)” value is “minimal toxicity” in the series on HeLa S3 cells (13 and 107 μg/mL); “moderately toxic” in the series with HeLa S3 cells (higher concentration (107 μg/mL)). In addition, the “Inhibition of teichoic acid biosynthesis” value in [3] is “not found to have this activity”. Also, the “Inhibition of TDP1 (screen)” value in [4] is recorded as “flagged”. Besides, the “Bacterial viability (CFU) with efflux pump inhibition” value with K. pneumoniae (Kp233) [6] was “significantly potentiated the killing activity; also recorded: significantly decrease the viability”. For the same molecule, the “Inhibition of Lassa virus entry (screen)” value in the series with Lassa virus entry is “flagged”. In addition, the “Reduction of MIC by addition of PAβN” value in the series on resistant GNR is 1-2 logs. In addition, the “Cell shape / average particle size” value in the series on K. pneumoniae (Kp233) [8] is “do not significantly alter cell shape”.
